Laboratory results as given in paper PMC12528394, “Screening and evaluation of therapeutic candidates with vascular protective effects in zebrafish models of diabetic retinopathy” (Scientific Reports, 2025).

How the values were obtained:
Assay type in all cases: in vivo
[1] = tested on: Tie2; test: RT-PCR mRNA expression in zebrafish DR model; settings: 100 µg/ml, 130 mM glucose, eyes at 6 dpf, RT-PCR normalized to GAPDH, triplicate
Experimental: (§1) The total RNA were extracted from the eyes at 6 dpf using the mRNA kit (PureLink™ RNA Mini Kit, Ambion). The mRNA was measured with a NanoDrop spectrophotometer (Thermo Scientific, Madison, WI, USA) for quantitative analysis and a cDNA synthesis with a SuperScript VILO cDNA Synthesis Kit (Thermo Scientific, Carlsbad, CA, USA). The cDNA was amplified by PCR with zebrafish primer GAPDH, VEGF, Tie2 and Ang-1 with SYBR Green Master Mix (Thermo Scientific, Carlsbad, CA, USA). The mRNA was detected by ViiA7 Real-Time PCR system (Thermo Scientific, Carlsbad, CA, USA). The values were normalized to GAPDH expression. Samples were analyzed in triplicate.

[2] = tested on: VEGF; test: RT-PCR mRNA expression in zebrafish DR model; settings: 100 µg/ml, 130 mM glucose, eyes at 6 dpf, RT-PCR normalized to GAPDH, triplicate
Experimental: as §1

[3] = tested on: Angiopoietin-1; test: RT-PCR mRNA expression in zebrafish DR model; settings: 100 µg/ml, 130 mM glucose, eyes at 6 dpf, RT-PCR normalized to GAPDH, triplicate
Experimental: as §1

[4] = tested on: zebrafish DR model; test: Zebrafish diabetic retinopathy model (130 mM glucose): survival and hyaloid-retinal vessel diameter; settings: 100 µg/ml, 3 to 6 dpf, n = 40 per group
Experimental: On day 3 post-fertilization, zebrafish embryos with normal differentiation were treated with 130 mM glucose in a 24-well plate (5 embryos per well) to induce a diabetic retinopathy model. Peptides 1, 2, and 3 were administered at concentrations of 20, 100, 200, and 400 µg/ml. On day 6 post-fertilization, embryos were fixed with 4% paraformaldehyde and the hyaloid-retina vessels were isolated. Further experimental details can be found in previous studies.

aflibercept
Tie2 mRNA level versus high-glucose group (in words) [1]: partially restored | VEGF mRNA level versus high-glucose group (in words) [2]: significantly reduced | Angiopoietin-1 mRNA level versus high-glucose group (in words) [3]: partially restored | retinal vessel thickness relative to glucose-only group (in words) [4]: effectively reduced
